Reference: patent US4419348A, “Anthracycline glycoside compositions, their use and preparation” (priority 1981, dated 1983)
Entries after “also recorded” stand apart in the source; their conditions may differ. Structures can show the parent of a compound that is named as a salt.

What was measured:
[1] = Electron microscopy of cardiac tissue (cardiotoxicity); format: in vivo, DBA/2 mice; conditions: 15 mg/kg i.v.; day three, five and seven; listed as free Adriamycin, hydrochloride
Protocol: To determine whether the reduced cardiac uptake of Adriamycin in cardiolipin complex encapsulated liposomes prevented cardiotoxicity, electron microscope studies of this organ were performed. DBA/2 mice were injected i.v. with free drug or drug entrapped in cardiolipin complex encapsulated liposomes at a dose of 15 mg/kg. Three mice in each group were sacrificed by cervical dislocation on day three, five and seven and hearts were immediately removed and placed in physiological saline. The apex of the left ventricle with part of the septum was dissected out and minced into one cubic mm blocks and fixed in 2.5% glutaraldehyde buffered with 0.1 M cacodylate, pH 7.2 for two hours at room temperature. The specimens were rinsed in buffer, osmicated in Bennett and Luft's collidin buffered osmium tetroxide, dehydrated in graded ethanols and acetone, and embedded in Epon. For electron microscopy, preliminary 1 μm Epon sections were stained with alkaline toluidine blue and appropriate areas were chosen for ultrathin sectioning, following which random sections were taken on 200 mesh copper grids and stained with uranyl acetate and lead citrate. A JEOL 100 S Electron microscope at an accelerating voltage of 80 KeV was utilized for viewing the sections.

[2] = test system: murine P388 ascitic leukemia; test: Antitumor activity against P388 ascitic leukemia, survival; format: in vivo, DBA/2 mice; conditions: 4 mg/kg i.p., 24 hours after 1×10^5 P388 cells i.p.
Protocol: To determine whether encapsulation of Adriamycin cardiolipin complex into liposomes reduced the antitumor activity of the drug, the effectiveness of liposomes-encapsulated Adriamycin cardiolipin complex against the murine P388 ascitic leukemia in DBA/2 mice was studied. Mice were injected i.p with 1×10^5 cells of P388 leukemia. Twenty-four hours after tumor implanation, mice were administered intraperitoneally free Adriamycin or cardiolipin complex-encapsulated liposome at a dose of 4 mg/kg. Control mice received 0.9% NaCl or blank liposomes representing the same concentration of lipids as used to encapsulate Adriamycin cardiolipin complex. All injections were made on 2% body weight basis. Mice were weighed on day of injection, doses of drugs were calculated on body weight basis, and the survival time of mice was recorded in days.
Mice weighing 20 to 25 g were given i.p. injections of 10^5 cells and 24 hours later free or cardiolipin complex-encapsulated liposome Adriamycin was administered.

[3] = pharmacokinetic studies; cited from earlier work
in vivo = conditions: mouse, iv, 4 mg/kg
Protocol: The physiologic disposition of free Adriamycin and of liposome encapsulated Adriamycin cardiolipin complex was determined in DBA/2 mice weighing 20-25 gm. Mice were injected with free Adriamycin and Adriamycin-cardiolipin complex encapsulated in liposomes via the tail vein at a dose of 4 mg/kg and at 2% body weight. At sequential time points from 5 minutes to 24 hours after drug administration, mice were bled through orbital sinus in hepanized tubes. Plasma was separated immediately and stored at -20° C. Four mice in each treatment group were killed by cervical dislocation and heart, liver, kidney, spleen, lungs and small intestine were rapidly excised, rinsed in 0.9% NaCl and stored at -20° C. until assayed.
Briefly, plasma was extracted with 5 volumes of 0.3 N HCl-50% ethanol and tissues were homogenized with 20 volumes of the acid alcohol. Plasma and tissue homogenates were centrifuged at 15,000 rpm for 10 minutes and the clear supernatant was assayed fluorometrically in a Perkin Elmer equipment at 470 nm excitation and 585 nm emission. Control tissues obtained from mice treated with blank liposomes were read similarly in the fluorometer to correct for any endogenous fluorescence. Fresh Adriamycin standards were prepared in ) 0.3 N HCl--50% ethanol each day to calculate the concentration of Adriamycin in the tissue samples.

[4] = in vivo; cited from earlier work

Row | Compound | myocardial toxic damage by electron microscopy [1] | T/C (Treated vs. Control), survival [2] [%] | uptake by heart muscle (in words) [3] | Cmax (in vivo) [ng/g] | Tmax (in vivo) [min] | cumulative dose correlated with cumulative myocardial damage [4] [mg/m^2] | cardiotoxicity (in words) [4]
1 | COc1cccc2c1C(=O)c1c(O)c3c(c(O)c1C2=O)C[C@@](O)(C(=O)CO)C[C@@H]3O[C@H]1C[C@H](N)[C@H](O)[C@H](C)O1 [Adriamycin, doxorubicin hydrochloride] | loss and fragmentation of myofilaments with concomitant clearing of organelles and swelling of sarcoplasmic areas; also recorded: degenerative changes with vacuolation of the smooth endoplasmic reticulum and loss of myofibrils; also recorded: Progression of damage could be seen with greater intensity on day 7 | 132 | taken up avidly and preferentially by heart muscle | 8300 | 30 | > 500 | 
2 | COc1cccc2c1C(=O)c1c(O)c3c(c(O)c1C2=O)C[C@@](O)(C(C)=O)C[C@@H]3O[C@H]1C[C@H](N)[C@H](O)[C@H](C)O1 [daunorubicin] |  |  |  |  |  |  | cardiotoxic effects
